In US20060069132A1, “Azolecarboxamide herbicides” (priority 2004, published 2006):

What was measured:
[1] = system: morningglory; assay: Test C pre-/postemergence herbicide test; format: in vivo, Ipomoea coccinea; set-up: key to Plant response rating, Morningglory: 0 = no effect, 100 = complete control; conditions: for Morningglory plant response rating: 500 g ai/ha
Procedure, shortened: (§1)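 Pre/post spray; non-phytotoxic solvent + surfactant. Post-timing 1–4 leaves, 2–18 cm. Read-out: visual % control vs untreated, day 12–14, greenhouse.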

[2] = system: goosegrass; assay: Test C pre-/postemergence herbicide test; format: in vivo, Eleusine indica; conditions: for Goosegrass plant response rating: 500 g ai/ha
Procedure, shortened: as §1

[3] = system: Surinam grass; assay: Test C pre-/postemergence herbicide test; format: in vivo, Urochloa decumbens; conditions: for Surinam Grass plant response rating: 500 g ai/ha
Procedure, shortened: as §1

[4] = system: corn; assay: Test C pre-/postemergence herbicide test; format: in vivo, Zea mays; conditions: for Corn plant response rating: 500 g ai/ha
Procedure, shortened: as §1

[5] = system: velvetleaf; assay: Test C pre-/postemergence herbicide test; format: in vivo, Abutilon theophrasti; conditions: for Velvetleaf plant response rating: 500 g ai/ha
Procedure, shortened: as §1

[6] = system: barnyardgrass; assay: Test C flooded paddy test; format: in vivo, Echinochloa crus-galli; conditions: for Plant response rating, Barnyardgrass: 500 g ai/ha, visual rating after 12 to 14 days
Procedure, shortened: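 Ratings (0 = no effect, 100 = complete control) come from visual comparison with untreated plants after 12 to 14 days in the greenhouse. Treatment was postemergence at the 1- to 4-leaf stage (2–18 cm), or at the 2-leaf stage for the flooded paddy barnyardgrass.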

[7] = system: large crabgrass; assay: Test A pre-/postemergence herbicide test; format: in vivo, Digitaria sanguinalis
Procedure, shortened: (§2)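 Greenhouse injury scoring (0–100, complete control = 100) at approximately ten days follows simultaneous pre- and postemergence application. Soil received a directed spray after seeding; seedlings of 2–10 cm at the one- to two-leaf stage were sprayed to runoff.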

[8] = system: morningglory; assay: Test A pre-/postemergence herbicide test; format: in vivo, Ipomoea spp.
Procedure, shortened: as §2

[9] = system: common ragweed; assay: Test C pre-/postemergence herbicide test; format: in vivo, Ambrosia elatior; set-up: key to Plant response rating, Ragweed: 0 = no effect, 100 = complete control; conditions: for Ragweed plant response rating: 500 g ai/ha
Procedure, shortened: as §1

[10] = system: giant foxtail; assay: Test A pre-/postemergence herbicide test; format: in vivo, Setaria faberi
Procedure, shortened: as §2

[11] = system: bermudagrass; assay: Test C pre-/postemergence herbicide test; format: in vivo, Cynodon dactylon; conditions: for Bermudagrass plant response rating: 500 g ai/ha
Procedure, shortened: as §1

[12] = system: johnsongrass; assay: Test C pre-/postemergence herbicide test; format: in vivo, Sorghum halepense; conditions: for Johnsongrass plant response rating: 500 g ai/ha
Procedure, shortened: as §1

[13] = system: ducksalad; assay: Test C flooded paddy test; format: in vivo, Heteranthera limosa; conditions: for Plant response rating, Ducksalad: 500 g ai/ha, visual rating after 12 to 14 days
[14] = Preemergence, scale 0 to 100, 0 no effect, 100 complete control
[15] = postemergence, 125 g ai/ha, scale 0 to 100
[16] = postemergence, 62 g ai/ha, scale 0 to 100
[17] = 125 g ai/ha, scale 0 (no effect) to 100 (complete control), visual, 12 to 14 days, preemergence
[18] = Postemergence, 250 g ai/ha, scale 0 to 100, 0 no effect, 100 complete control
[19] = 250 g ai/ha, scale 0 to 100 (0 no effect, 100 complete control), visual, 12 to 14 days, preemergence
[20] = 62 g ai/ha, scale 0 to 100 (0 no effect, 100 complete control)
[21] = 125 g ai/ha, scale of 0 to 100, 0 is no effect, 100 is complete control
[22] = 250 g ai/ha, scale of 0 to 100, 0 is no effect, 100 is complete control
[23] = scale 0 to 100 (0 no effect, 100 complete control)
[24] = Postemergence, 500 g ai/ha, 0 to 100 scale, 0 no effect, 100 complete control
[25] = Postemergence, 2000 g ai/ha, 0 to 100 scale, 0 no effect, 100 complete control
[26] = Preemergence, 500 g ai/ha, visual rating, 0 to 100 scale (0 no effect, 100 complete control)
[27] = Preemergence, 2000 g ai/ha, visual rating, 0 to 100 scale (0 no effect, 100 complete control)

CCn1nc(C(C)(C)C)cc1C(=O)Nc1cccc(C(C)=NO)c1 [Compound 108]
85: Plant response rating, Crabgrass, Large [7, 25] | Crabgrass, Large plant response rating [7, 26]
20: Plant response rating, Goosegrass [2, 16] | Plant response rating, Surinam Grass [3, 16] | Plant response rating (0 = no effect, 100 = complete control), Ragweed ([9]; 62 g ai/ha, preemergence) | Plant response rating, Ragweed [9, 17] | Plant response rating, Johnsongrass [12, 16]
30: Plant response rating, Morningglory [1, 16] | Plant response rating (0 = no effect, 100 = complete control), Surinam Grass ([3]; 62 g ai/ha, preemergence) | Plant response rating (0 = no effect, 100 = complete control), Corn ([4]; 62 g ai/ha, preemergence) | Barnyardgrass plant response rating [6, 20] | Morningglory plant response rating [8, 26] | Plant response rating, Bermudagrass [11, 15] | Plant response rating, Bermudagrass [11, 16]
95: Foxtail, Giant plant response rating [10, 26]
65: Crabgrass, Large plant response rating [7, 24]
80: Plant response rating, Velvetleaf [5, 18] | Bermudagrass plant response rating ([11]; Postemergence, scale 0 to 100) | Ducksalad plant response rating [13, 22]
60: Plant response rating, Morningglory [1, 15] | Corn plant response rating ([4]; Postemergence, scale 0 to 100) | Plant response rating, Velvetleaf [5, 15] | Barnyardgrass plant response rating [6, 22] | Plant response rating, Bermudagrass [11, 18] | Plant response rating (0 = no effect, 100 = complete control), Johnsongrass ([12]; 62 g ai/ha, preemergence)
40: Plant response rating (0 = no effect, 100 = complete control), Morningglory ([1]; 62 g ai/ha, preemergence) | Plant response rating, Goosegrass [2, 15] | Plant response rating, Surinam Grass [3, 17] | Plant response rating, Surinam Grass [3, 18] | Plant response rating, Surinam Grass [3, 15] | Plant response rating, Corn [4, 17] | Plant response rating, Velvetleaf [5, 16] | Barnyardgrass plant response rating [6, 21] | Morningglory plant response rating [8, 24] | Plant response rating, Morningglory [8, 25]
50: Surinam Grass plant response rating ([3]; Postemergence, scale 0 to 100) | Plant response rating, Corn [4, 19] | Plant response rating, Corn [4, 18] | Corn plant response rating [4, 14] | Plant response rating, Corn [4, 15] | Plant response rating, Corn [4, 16] | Plant response rating, Johnsongrass [12, 15] | Ducksalad plant response rating [13, 20]
100: Plant response rating, Goosegrass [2, 17] | Goosegrass plant response rating [2, 14] | Velvetleaf plant response rating [5, 14] | Crabgrass, Large plant response rating [7, 27] | Plant response rating, Foxtail, Giant [10, 25] | Foxtail, Giant plant response rating [10, 27] | Plant response rating (0 = no effect, 100 = complete control), Bermudagrass ([11]; 62 g ai/ha, preemergence) | Plant response rating, Bermudagrass [11, 17] | Plant response rating, Bermudagrass [11, 19] | Bermudagrass plant response rating [11, 14] | Plant response rating, Johnsongrass [12, 17] | Johnsongrass plant response rating [12, 14]
75: Morningglory plant response rating [8, 27]
70: Goosegrass plant response rating ([2]; Postemergence, scale 0 to 100) | Plant response rating, Goosegrass [2, 18] | Plant response rating, Barnyardgrass [6, 23] | Plant response rating, Johnsongrass [12, 18] | Ducksalad plant response rating [13, 21]
90: Morningglory plant response rating [1, 14] | Plant response rating (0 = no effect, 100 = complete control), Goosegrass ([2]; 62 g ai/ha, preemergence) | Surinam Grass plant response rating [3, 14] | Plant response rating, Velvetleaf [5, 17] | Velvetleaf plant response rating ([5]; Postemergence, scale 0 to 100) | Ragweed plant response rating [9, 14] | Foxtail, Giant plant response rating [10, 24] | Johnsongrass plant response rating ([12]; Postemergence, scale 0 to 100) | Plant response rating, Ducksalad [13, 23]

CC(=NO)c1cccc(NC(=O)c2cc(C(C)(C)C)nn2CC(F)(F)F)c1 [Compound 112]
80: Plant response rating, Velvetleaf [5, 18]
30: Goosegrass plant response rating ([2]; Postemergence, scale 0 to 100) | Plant response rating, Goosegrass [2, 18] | Corn plant response rating ([4]; Postemergence, scale 0 to 100) | Plant response rating, Barnyardgrass [6, 23] | Plant response rating, Crabgrass, Large [7, 25] | Bermudagrass plant response rating ([11]; Postemergence, scale 0 to 100) | Plant response rating, Bermudagrass [11, 18]
35: Plant response rating, Foxtail, Giant [10, 25]
20: Plant response rating, Morningglory [1, 15] | Plant response rating, Goosegrass [2, 15] | Plant response rating, Goosegrass [2, 16] | Plant response rating, Surinam Grass [3, 16] | Plant response rating, Corn [4, 15] | Morningglory plant response rating [8, 24] | Morningglory plant response rating [8, 26] | Foxtail, Giant plant response rating [10, 24] | Plant response rating, Johnsongrass [12, 15] | Plant response rating, Johnsongrass [12, 16]
70: Plant response rating, Morningglory [1, 18] | Ragweed plant response rating ([9]; Postemergence, scale 0 to 100) | Plant response rating, Ragweed [9, 18]
25: Crabgrass, Large plant response rating [7, 24] | Foxtail, Giant plant response rating [10, 26]
0: Plant response rating, Morningglory [1, 16] | Plant response rating, Velvetleaf [5, 15] | Plant response rating, Velvetleaf [5, 16] | Barnyardgrass plant response rating [6, 20] | Barnyardgrass plant response rating [6, 21] | Plant response rating, Ragweed [9, 15] | Plant response rating, Ragweed [9, 16] | Plant response rating, Bermudagrass [11, 15] | Plant response rating, Bermudagrass [11, 16] | Ducksalad plant response rating [13, 20] | Ducksalad plant response rating [13, 21] | Ducksalad plant response rating [13, 22]
45: Crabgrass, Large plant response rating [7, 26] | Morningglory plant response rating [8, 27]
40: Plant response rating, Surinam Grass [3, 18] | Plant response rating, Surinam Grass [3, 15]
50: Foxtail, Giant plant response rating [10, 27] | Plant response rating, Johnsongrass [12, 18]
90: Velvetleaf plant response rating ([5]; Postemergence, scale 0 to 100)
10: Plant response rating, Corn [4, 16] | Barnyardgrass plant response rating [6, 22]
55: Crabgrass, Large plant response rating [7, 27]
15: Plant response rating, Morningglory [8, 25]
60: Surinam Grass plant response rating ([3]; Postemergence, scale 0 to 100) | Johnsongrass plant response rating ([12]; Postemergence, scale 0 to 100)
100: Morningglory plant response rating ([1]; Postemergence, scale 0 to 100) | Plant response rating, Ducksalad [13, 23]
